Holding throughout (format): cell-based, human
One series relates to CD4-positive T cells. In words: Inhibition of cell viability in the IL-2/IL-4 release assays. The protocol: (§1) CD4-positive T cells stimulated with beads coated with antibodies against CD2, CD3 and CD28 are incubated for 48 hours containing the compounds under investigation, reconstituted in DMSO. The secreted levels of Interleukin-2, 4 and 13 are measured in the cell culture supernatant using a cytometric bead array and the cell viability is measured using an MTT (3-(4,5-dimethylthiazol-2-yl)-2,5-diphenyltetrazolium bromide) assay.
(§2) Secreted IL-4 levels may be measured using electrochemiluminescence (MSD kits, Meso Scale Discovery), while secreted IL-2 levels may be measured using proximity homogenous time-resolved fluorescence (HTRF) and the amount of living cells may be measured by addition of resazurin (PrestoBlue®).

Assay in series [1]: as above
The following applies: human; read-out: Max Effect, Inhibition of cell viability. The protocol:
as §1, §2

The subject of a further series is interleukin (IL)-8. Put plainly: Inhibition of Interleukin-8 in PBMCs. The protocol: (§3) The compounds of formulae (I), (IA) and (IB) may be investigated for inhibition of pro-inflammatory cytokines Interleukin (IL)-1p, 2, 4, 6, 8, 13 and 17A, in peripheral blood mononuclear cells (PBMCs) isolated from fresh human buffy coats by centrifugation on Lymphoprep™ (Stemcell Technologies). All human cells are grown in cell culture medium RPMI-1640 supplemented with 1% penicillin/streptomycin and 5% heat inactivated fetal bovine serum.

The test system of the next series is IL-4. In words: Inhibition of IL-4 release, stimulated CD4-positive T cells. Here is the method: (§4) The compounds of formulae (I), (IA) and (IB) may be investigated for inhibition of pro-inflammatory cytokines Interleukin-2, 4 and 13 in human CD4-positive T cells isolated from fresh isolated PBMCS using a CD4-positive T cell isolation kit.
as §1, §2

In a further series the test system is IL-2. In words: Inhibition of IL-2 release, stimulated CD4-positive T cells. Here is the method:
as §4, §1, §2

A further series concerns interleukin (IL)-17A. In words: Inhibition of secreted Interleukin-17A in PMA/ionomycin-stimulated PBMCs (cytometric bead array). The following applies: PBMCs stimulated with PMA/ionomycin, 24 hours. The protocol: as §3
PBMCs stimulated with PMA/ionomycin are incubated for 24 hours containing the compounds under investigation, reconstituted in DMSO. The secreted levels of Interleukin-17A are measured in the cell culture supernatant using a cytometric bead array and the cell viability is quantified using Trypan blue.

The test system of the next series is interleukin (IL)-6. In words: Inhibition of Interleukin-6 in PBMCs. The protocol:
as §3

A further series relates to Interleukin (IL)-1 beta. In words: Inhibition of secreted Interleukin-1 beta in LPS-stimulated PBMCs (cytometric bead array). The settings on record: PBMCs stimulated with LPS, 24 hours. The protocol:
as §3
PBMCs stimulated with LPS (Salmonella enterica serotype typhimurium) are incubated for 24 hours containing the compounds under investigation, reconstituted in dimethyl sulfoxide (DMSO). The secreted levels of Interleukin-1(3 is measured in the cell culture supernatant using a cytometric bead array and the cell viability is quantified using Trypan blue.

As for `Nc1nnc(C(c2ccccc2)c2ccccc2)c(N)n1` [3,5-Diamino-6-(diphenylmethyl)-1,2,4-triazine], the “inhibition of cell viability (in words)” value with CD4-positive T cells is listed as “without significant inhibition”. Also, the cytotoxicity at 48 h in series [1] came to 28%. Also, in the series with interleukin (IL)-8, the “inhibition of Interleukin IL-8” value is “high inhibition”. Further, the “level of inhibition of IL-4 (in words)” value in the series with IL-4 is given as “good level of inhibition”. Also, the “level of inhibition of IL-2 (in words)” value in the series on IL-2 was “good level of inhibition”. The “inhibition of Interleukin IL-17A” value in the series on interleukin (IL)-17A is “high inhibition”. Besides, the “inhibition of Interleukin IL-6” value in the series with interleukin (IL)-6 is listed as “moderate inhibition”. In addition, in the series with Interleukin (IL)-1 beta, the “inhibition of Interleukin IL-1 beta” value is listed as “moderate inhibition”.

With `Nc1nnc(-c2sc(Cl)c(Cl)c2Cl)c(N)n1` [3,5-diamino-6-[2-(3,4,5-trichlorothienyl)]-1,2,4-triazine], the “inhibition of Interleukin IL-8” value in the series on interleukin (IL)-8 is “inhibitory effect”. Moreover, the “inhibition of Interleukin IL-17A” value in the series on interleukin (IL)-17A was “inhibitory effect”. For the same compound, the “inhibition of Interleukin IL-6” value in the series on interleukin (IL)-6 was “inhibitory effect”. Further, in the series on Interleukin (IL)-1 beta, the “inhibition of Interleukin IL-1 beta” value is given as “inhibitory effect”.

The values are drawn from patent US20230167075A1, “INTERLEUKIN INHIBITORS” (UNIVERSITY OF GREENWICH, priority 2020, published 2023).
